Measurements: patent US20250296938A1, “Compounds that Interact with the Ras Superfamily for the Treatment of Cancers, Inflammatory Diseases, Rasopathies, and Fibrotic Disease” (SHY Therapeutics, LLC, priority 2018, published 2025)
Like-named read-outs stand apart in the source and are kept apart here.

Legend:
Experiment in all cases: Ras GTP binding domain inhibition assay (Cy3-GTP/Cy5-GTP competition)
KRas Q61H mutant = test system: KRas Q61H mutant; parameters: species or system human; settings: 20 μM; for KRas Q61H mutant + SOS: % inh.: with SOS; for KRas Q61H mutant: % inh.: without SOS
Summary of the method: (§1)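 Compounds tested at 20 μM or in serial dilution for IC50 against nickel-captured His-tagged GTPase, 3 hours at room temperature, with or without His-Sos GEF added for last hour. Fluorescent GTP then added at 100 nM for 45 minutes; wells washed, bound label measured by fluorescence.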

KRas wild type = test system: KRas wild type; parameters: species or system human; settings: 20 μM; for KRas wild type + SOS: % inh.: with SOS; for KRas wild type: % inh.: without SOS
Summary of the method: as §1

KRas G12C mutant = test system: KRas G12C mutant; parameters: species or system human; settings: 20 μM; for KRas G12C mutant + SOS: % inh.: with SOS; for KRas G12C mutant: % inh.: without SOS
Summary of the method: as §1

KRas G12D mutant = target: T1, KRas G12D mutant (Homo sapiens, UniProt P01116, G12D); settings: 20 μM
T1 construct: fused on or other part: His tag, used for capture on nickel-coated plates
Summary of the method: as §1

[1] = with SOS, read-out: KRas G-12D mutant + SOS: % inh.
[2] = without SOS, read-out: KRas G12D mutant: % inh.

| Compound | KRas Q61H mutant + SOS: % inh. (KRas Q61H mutant) | KRas Q61H mutant: % inh. (KRas Q61H mutant) | KRas wild type + SOS: % inh. (KRas wild type) | KRas wild type: % inh. (KRas wild type) | KRas G12C mutant + SOS: % inh. (KRas G12C mutant) | KRas G12C mutant: % inh. (KRas G12C mutant) | inhibition at 20 µM (KRas G12D mutant; [1]) | inhibition at 20 µM (KRas G12D mutant; [2]) |
| --- | --- | --- | --- | --- | --- | --- | --- | --- |
| Oc1nc(-c2ncc3ccccn23)nc2c(-c3ccccn3)csc12 [drawing 834] | C (51-75% inhibition) | C (51-75% inhibition) | C (51-75% inhibition) | C (51-75% inhibition) | C (51-75% inhibition) | C (51-75% inhibition) | 51 to 75% | 76 to 100% |
| COc1cccc(-c2sc3nc(-c4nccn4C)nc(N4CCC(OC)C4)c3c2-c2ccccc2)c1F.Cl (stereo not shown) [drawing 838] | D (76-100% inhibition) | B (26-50% inhibition) | D (76-100% inhibition) | C (51-75% inhibition) | D (76-100% inhibition) | B (26-50% inhibition) | 51 to 75% | 51 to 75% |
| COc1ccc(Cn2cnc(-c3nc(O)c4scc(-c5ccccn5)c4n3)c2)cc1 [drawing 839] | A (1-25% inhibition) | B (26-50% inhibition) | A (1-25% inhibition) | A (1-25% inhibition) | A (1-25% inhibition) | B (26-50% inhibition) | 0% | 1 to 25% |
| Cc1cc(Cn2ccnc2-c2nc(O)c3scc(-c4ccccn4)c3n2)on1 [drawing 846] | C (51-75% inhibition) | B (26-50% inhibition) | B (26-50% inhibition) | C (51-75% inhibition) | C (51-75% inhibition) | B (26-50% inhibition) | 26 to 50% | 51 to 75% |
| Oc1nc(-c2cn(-c3ccccc3)cn2)nc2c(-c3ccccn3)csc12 [drawing 847] | A (1-25% inhibition) | B (26-50% inhibition) | A (1-25% inhibition) | A (1-25% inhibition) | A (1-25% inhibition) | 0 (0% inhibition) | 1 to 25% | 1 to 25% |
| Oc1nc(-c2cn3cccnc3n2)nc2c(-c3ccccn3)csc12 [drawing 848] | A (1-25% inhibition) | A (1-25% inhibition) | A (1-25% inhibition) | A (1-25% inhibition) | A (1-25% inhibition) | 0 (0% inhibition) | 1 to 25% | 1 to 25% |
| COC1CCN(c2nc(-c3nccn3C)nc3sc(-c4ccccc4Cl)c(-c4cscn4)c23)C1 (stereo not shown) [drawing 849] | C (51-75% inhibition) | B (26-50% inhibition) | C (51-75% inhibition) | C (51-75% inhibition) | C (51-75% inhibition) | B (26-50% inhibition) | 51 to 75% | 51 to 75% |
| COc1cccc(Cn2ccnc2-c2nc(O)c3scc(-c4ccccn4)c3n2)c1 [drawing 850] | D (76-100% inhibition) | C (51-75% inhibition) | C (51-75% inhibition) | C (51-75% inhibition) | D (76-100% inhibition) | C (51-75% inhibition) | 51 to 75% | 76 to 100% |
| Oc1nc(-c2nccn2Cc2ccccn2)nc2c(-c3ccccn3)csc12 [drawing 851] | D (76-100% inhibition) | C (51-75% inhibition) | C (51-75% inhibition) | D (76-100% inhibition) | D (76-100% inhibition) | D (76-100% inhibition) | 51 to 75% | 76 to 100% |
| COCCn1ccnc1-c1nc(O)c2scc(-c3ccccn3)c2n1 [drawing 852] | C (51-75% inhibition) | C (51-75% inhibition) | C (51-75% inhibition) | D (76-100% inhibition) | D (76-100% inhibition) | C (51-75% inhibition) | 51 to 75% | 76 to 100% |
| Cn1ccnc1-c1nc(O)c2scc(-c3ccccn3)c2n1 [drawing 853] | C (51-75% inhibition) | D (76-100% inhibition) | C (51-75% inhibition) | D (76-100% inhibition) | C (51-75% inhibition) | D (76-100% inhibition) | 51 to 75% | 76 to 100% |
| COCC(C)Nc1nc(-c2nccn2C)nc2sc(-c3ccccc3Cl)c(-c3cscn3)c12 (stereo not shown) [drawing 854] | D (76-100% inhibition) | C (51-75% inhibition) | D (76-100% inhibition) | B (26-50% inhibition) | D (76-100% inhibition) | C (51-75% inhibition) | 51 to 75% | 51 to 75% |
| COCC(C)Nc1nc(-c2nccn2C)nc2sc(-c3cccc(OC)c3)c(-c3cscn3)c12 (stereo not shown) [drawing 855] | D (76-100% inhibition) | C (51-75% inhibition) | D (76-100% inhibition) | B (26-50% inhibition) | D (76-100% inhibition) | B (26-50% inhibition) | 51 to 75% | 51 to 75% |
| COC1CCN(c2nc(-c3nccn3C)nc3sc(-c4ccn(C)n4)c(-c4ccccc4)c23)CC1 [drawing 856] | C (51-75% inhibition) | B (26-50% inhibition) | B (26-50% inhibition) | 0 (0% inhibition) | C (51-75% inhibition) | B (26-50% inhibition) | 26 to 50% | 26 to 50% |
| Cn1ccc(-c2sc3nc(-c4nccn4C)nc(N4CCC5(CCOC5)C4)c3c2-c2ccccc2)n1 (stereo not shown) [drawing 857] | B (26-50% inhibition) | B (26-50% inhibition) | A (1-25% inhibition) | A (1-25% inhibition) | B (26-50% inhibition) | A (1-25% inhibition) | 1 to 25% | 26 to 50% |
| COCC1CCN(c2nc(-c3nccn3C)nc3sc(-c4ccn(C)n4)c(-c4ccccc4)c23)C1 (stereo not shown) [drawing 858] | D (76-100% inhibition) | C (51-75% inhibition) | C (51-75% inhibition) | 0 (0% inhibition) | C (51-75% inhibition) | B (26-50% inhibition) | 26 to 50% | 26 to 50% |
| CO[C@@H]1CCC(Nc2nc(-c3nccn3C)nc3sc(-c4ccn(C)n4)c(-c4ccccc4)c23)C1 (stereo partly shown) [drawing 859] | C (51-75% inhibition) | B (26-50% inhibition) | C (51-75% inhibition) | A (1-25% inhibition) | C (51-75% inhibition) | A (1-25% inhibition) | 26 to 50% | 26 to 50% |
| CO[C@H]1CCC(Nc2nc(-c3nccn3C)nc3sc(-c4ccn(C)n4)c(-c4ccccc4)c23)C1 (stereo partly shown) [drawing 860] | D (76-100% inhibition) | B (26-50% inhibition) | D (76-100% inhibition) | B (26-50% inhibition) | D (76-100% inhibition) | B (26-50% inhibition) | 51 to 75% | 26 to 50% |
| Cn1ccc(-c2sc3nc(-c4nccn4C)nc(NCC4CCOC4)c3c2-c2ccccc2)n1 (stereo not shown) [drawing 861] | C (51-75% inhibition) | B (26-50% inhibition) | B (26-50% inhibition) | 0 (0% inhibition) | C (51-75% inhibition) | 0 (0% inhibition) | 1 to 25% | 26 to 50% |
| Cn1ccc(-c2sc3nc(-c4nccn4C)nc(NC4CCOCC4)c3c2-c2ccccc2)n1 [drawing 862] | B (26-50% inhibition) | B (26-50% inhibition) | B (26-50% inhibition) | B (26-50% inhibition) | A (1-25% inhibition) | 0 (0% inhibition) | 1 to 25% | 1 to 25% |
